Tests used:
HCC1937 cells = assay: Mouse xenograft model of in vivo tumorigenesis (chemoprevention)
Experimental: For in vivo tumorigenesis, we utilized a mouse xenograft model that began treatment with the DNA repair-activating agent 24 hours prior to inoculation of HCC1937 cells into the mammary fat pad. Treatment with vehicle control, 50 mg/kg benserazide, or 250 mg/kg benserazide continued daily for up to 60 days while monitoring for tumor formation by palpitation. After the 60 days (i.e. study endpoint), serum was collected for analysis of 8oxodG levels, tumors (if present) were excised and weighed, and anatomy was analyzed for metastasis.

[1] = test system: BRCA1-mutant/deficient cells; assay: Soft agar colony formation assay (in vitro tumorigenesis); assay type: cell-based, human; conditions: 20 μM benserazide vs 1 μM tamoxifen and vehicle
Experimental: BRCA1 wild-type (MCF7) and mutant (HCC1937) cells (FIG. 14A) as well as MCF7 cells stably transduced with shRNA to BRCA1 or non-targeting control (FIG. 14B) were treated with vehicle control, 20 μM benserazide, or 1 μM tamoxifen and subjected to the soft agar colony formation assay, i.e. the standard assay for in vitro tumorigenesis. Colony formation represents tumorigenic potential. Tamoxifen is the current FDA-approved chemoprevention agent for breast cancer and a therapeutically-equivalent dose was used for comparison.

[2] = test system: BER of ODD in BT474 cells (wild-type BRCA1); assay: DNA repair assay (oxidatively damaged GFP reporter gene), follow-up; assay type: cell-based, human; conditions: 20 μM, BT474, vs vehicle
Experimental: (§1) Human breast cancer cell lines that were deficient in BER (HCC1143, MDAMB468, HCC1937, and SUM149) or proficient in BER (BT474 and MCF7) were cultured according to American Type Culture Collection guidelines, with the exception of SUM149, which was cultured according to Asterand plc guidelines. Brca1^+/+ and Brca1^-/- mouse mammary epithelial […] previously described. Cells were treated with DMSO (vehicle control) or acetohexamide or benserazide as indicated for 24 hours at 37° C. and 5% CO2. The DNA repair assay was carried out as described in the examples below. Where indicated, BER (base excision mode of DNA repair) activity was expressed relative to the control (DMSO).

[3] = test system: BER of ODD in SUM149 cells (mutant BRCA1, BER-defective); assay: as above; assay type: cell-based, human
Experimental: as §1

[4] = test system: BER of ODD in HCC1937 cells (mutant BRCA1); assay: as above; assay type: cell-based, human; conditions: 20 μM, HCC1937, vs vehicle
Experimental: as §1

[5] = test system: BER of ODD in MCF7 cells (wild-type BRCA1, BER-proficient); assay: as above; assay type: cell-based, human; conditions: 20 μM, MCF7, vs vehicle
Experimental: as §1

[6] = test system: BRCA1 wild-type (MCF7) and mutant (HCC1937) cells; assay: Trypan blue exclusion assay (cell viability); assay type: cell-based, human; conditions: treated simultaneously with the colony formation assay
Description: In FIG. 14C, BRCA1 wild-type (MCF7) and mutant (HCC1937) cells were simultaneously treated and then analyzed for cell viability by the trypan blue exclusion assay.

[7] = study endpoint 60 days, dose response

NC(CO)C(=O)NNCc1ccc(O)c(O)c1O (stereo not shown) [benserazide, 2-amino-3-hydroxy-N′-[(2,3,4-trihydroxyphenyl)methyl]propanehydrazide]
tumor formation over time (HCC1937 cells; 50 or 250 mg/kg daily up to 60 days): delayed tumor formation over time
percentage of tumor-free mice (HCC1937 cells; 50 or 250 mg/kg daily up to 60 days, started 24 hours prior to inoculation): increased the percentage of tumor-free mice in a dose-response manner
metastasis (HCC1937 cells; both concentrations (50 and 250 mg/kg), unlike vehicle control): prevented metastasis
serum levels of 8oxodG (HCC1937 cells; [7]): increase serum levels of 8oxodG
tumor weights (HCC1937 cells; [7]): decrease tumor weights
in vitro tumorigenic potential (colony formation) [1]: prevented in vitro tumorigenesis
in vitro tumorigenic potential (colony formation) ([1]; listed as Benserazide): superior to tamoxifen at reducing in vitro tumorigenic potential
BER [2]: no effect on BER
BER ([3]; 20 μM, SUM149, vs vehicle): statistically significant increase in BER
repair of oxidatively damaged GFP reporter gene, dose-response ([3]; SUM149PT cells, 24 hours treatment): dose-response increase in repair of an oxidatively-damaged GFP reporter gene
BER [4]: statistically significant increase in BER
BER [5]: no effect on BER
cell viability (trypan blue exclusion) [6]: not due to a decrease in cell viability
